Test results: patent US20250255850A1, “PHARMACEUTICAL COMPOSITIONS FOR TREATING NEUROLOGICAL CONDITIONS” (YISSUM RESEARCH DEVELOPMENT COMPANY OF THE HEBREW …, priority 2021, published 2025)

How the values were obtained:
SH-SY5Y cells = assay: Confocal immunofluorescence of synaptophysin and 3-nitrotyrosine; type: cell-based, human; details: pharmacological inhibition (7-NI) or knockdown of nNOS
Experimental: FIGS. 18A-C show immunofluorescence of synaptophysin and 3-nitrotyrosine in SH-SY5Y cells with inhibited nNOS activity. Cells (with or without treatment) were postfixed in 4% paraformaldehyde and then incubated with the primary rabbit monoclonal Syp (red), and either primary mouse monoclonal NeuN (green), or primary mouse monoclonal 3-Ntyr (green) antibodies, in another group of cells. Cells were incubated with their respective secondary antibodies, such as anti-mouse Alexa fluor488, or anti-rabbit Alexa fluor594, and then mounted with DAPI (Blue) in both groups of cells. The images were acquired using a confocal microscope. Groups of cells: SH-SY5Y, SH-SY5Y+7-NI, and SH-SY5Y+si-nNOS. Each group consisted of three independent sets of experiments and was run in triplicates. The initial cell seed number was ˜10^6/cm^2. FIG. 18A presents representative images of Syp and 3-Ntyr immunofluorescence. FIGS. 18B-C are bar graphs showing the relative fluorescent intensity of Syp (FIG. 18B) and N-Tyr (FIG. 18C) immunofluorescence in the 3 groups of cells. The data are presented as mean±SEM. One-way ANOVA followed by Fisher's LSD multiple comparison post hoc test was conducted. *P<0.05, **P<0.01, ***P<0.001. The scale bar is 100 μm. […]

[1] = even in very high doses; Biopharm. Drug Dispos. 2000, 21, 221-228; cited from earlier work
neuronal NOS = neuronal NOS (Homo sapiens, UniProt P29475); details: Pharm Res., 2001, 18, 1607-1612; cited from earlier work
SHANK3 mutant mice = assay: Open field test, SHANK3 mutant mice; type: in vivo, mouse; details: 7-NI i.p. 20, 50 and 80 mg/kg
Experimental: Open field test: Mice were tested in an open field (45×45 cm) virtually divided into central and peripheral regions. Animal activity was recorded by video tracking (Noldus Ethovision). Each mouse was allowed to explore the apparatus for 5 minutes. The distance traveled, the number of rears and revolutions, the number of grooming bouts and cumulative grooming time, the number of head shaking or twitches, the number of entries in the center, and the time spent in the central and peripheral regions were recorded. Measures were recorded in 5-minute intervals.
A dose dependent study was conducted to determine the optimal dose that may produce the greatest effect on mice behavior. The SHANK3 mutant mice (n=5 for each group) were treated with the 7-NI (i.p) at doses of 0, 20, 50, and 80 mg/kg. This was followed by a set of behavioral tests to assess the proper dose of 7-NI that can reverse the autistic phenotypes observed in this model.
Initially, an open field test was performed to examine the general motor activity levels in mice that is measured by the distance travelled and velocity.
A 100 μL injection of the poly(sebacic acid-ricinoleic acid) (PSARA) gel formulation with 7NI was used to evaluate its effect in reversing ASD-like behaviors in SHANK3 mice. The motor activity, social interaction, anxiety and interest behaviors were examined using the behavior analyses as described herein.

nNOS = target: T1, nNOS (Homo sapiens, UniProt P29475); assay: NADPH-diaphorase activity assay in SH-SY5Y cell lysates; type: cell-based; details: 7-NI 100 μM 24 hours or 20 nM nNOS siRNA 24 hours
T1 construct: SH-SY5Y cells grown in six-well culture plates were lysed in 50 mM Tris-HCl buffer (pH 7.4); endogenous in cells; host or cells: SH-SY5Y (human neuroblastoma, ATCC)
Experimental: Human NB SH-SY5Y cells were obtained from the American Type Culture Collection (ATCC) and maintained in Dulbecco's modified Eagle's medium (DMEM) and Ham's F-12 (1:1) supplemented with 10% fetal bovine serum, 2 mM L-glutamine, and 100 U/ml penicillin-G/100 […] streptomycin in a humidified atmosphere (37° C., 5% CO2). Cells were plated onto 25 cm^2 and 75 cm^2 plates at a density of 7.0×10^5 and 2.1×10^6 cells/cm^2 respectively for Western blotting (WB) and 1×10^5 for immunofluorescence. The SH-SY5Y cells were treated with 100 μM 7-nitroindazole (7-NI) for 24 hours (Fujibayashi et al., 2015). This concentration was confirmed in a dose-response experiment (FIG. 14A) using an MTT viability assay. […]
The NADPH-diaphorase activity assay was used to determine the NOS activity based on the NADPH-dependent reduction of nitro-blue tetrazolium salt (NBT) to visible formazan (Amaroli and Chessa, 2012; Seckler et al., 2020). […] After a 15 min incubation period at 37° C., the production of formazan was measured spectrophotometrically at 585 nm. The data were expressed as absorbance units and normalized for the protein content of each sample. Protein concentration was measured by the bicinchoninic acid (BCA) protein assay using BSA as a standard (Ortiz-Ortiz et al., 2009). Released NO was measured using a Griess Assay Kit (Beyotime, Shanghai, China) according to the manufacturer's instructions.

T1 sequence (P29475 whole entry): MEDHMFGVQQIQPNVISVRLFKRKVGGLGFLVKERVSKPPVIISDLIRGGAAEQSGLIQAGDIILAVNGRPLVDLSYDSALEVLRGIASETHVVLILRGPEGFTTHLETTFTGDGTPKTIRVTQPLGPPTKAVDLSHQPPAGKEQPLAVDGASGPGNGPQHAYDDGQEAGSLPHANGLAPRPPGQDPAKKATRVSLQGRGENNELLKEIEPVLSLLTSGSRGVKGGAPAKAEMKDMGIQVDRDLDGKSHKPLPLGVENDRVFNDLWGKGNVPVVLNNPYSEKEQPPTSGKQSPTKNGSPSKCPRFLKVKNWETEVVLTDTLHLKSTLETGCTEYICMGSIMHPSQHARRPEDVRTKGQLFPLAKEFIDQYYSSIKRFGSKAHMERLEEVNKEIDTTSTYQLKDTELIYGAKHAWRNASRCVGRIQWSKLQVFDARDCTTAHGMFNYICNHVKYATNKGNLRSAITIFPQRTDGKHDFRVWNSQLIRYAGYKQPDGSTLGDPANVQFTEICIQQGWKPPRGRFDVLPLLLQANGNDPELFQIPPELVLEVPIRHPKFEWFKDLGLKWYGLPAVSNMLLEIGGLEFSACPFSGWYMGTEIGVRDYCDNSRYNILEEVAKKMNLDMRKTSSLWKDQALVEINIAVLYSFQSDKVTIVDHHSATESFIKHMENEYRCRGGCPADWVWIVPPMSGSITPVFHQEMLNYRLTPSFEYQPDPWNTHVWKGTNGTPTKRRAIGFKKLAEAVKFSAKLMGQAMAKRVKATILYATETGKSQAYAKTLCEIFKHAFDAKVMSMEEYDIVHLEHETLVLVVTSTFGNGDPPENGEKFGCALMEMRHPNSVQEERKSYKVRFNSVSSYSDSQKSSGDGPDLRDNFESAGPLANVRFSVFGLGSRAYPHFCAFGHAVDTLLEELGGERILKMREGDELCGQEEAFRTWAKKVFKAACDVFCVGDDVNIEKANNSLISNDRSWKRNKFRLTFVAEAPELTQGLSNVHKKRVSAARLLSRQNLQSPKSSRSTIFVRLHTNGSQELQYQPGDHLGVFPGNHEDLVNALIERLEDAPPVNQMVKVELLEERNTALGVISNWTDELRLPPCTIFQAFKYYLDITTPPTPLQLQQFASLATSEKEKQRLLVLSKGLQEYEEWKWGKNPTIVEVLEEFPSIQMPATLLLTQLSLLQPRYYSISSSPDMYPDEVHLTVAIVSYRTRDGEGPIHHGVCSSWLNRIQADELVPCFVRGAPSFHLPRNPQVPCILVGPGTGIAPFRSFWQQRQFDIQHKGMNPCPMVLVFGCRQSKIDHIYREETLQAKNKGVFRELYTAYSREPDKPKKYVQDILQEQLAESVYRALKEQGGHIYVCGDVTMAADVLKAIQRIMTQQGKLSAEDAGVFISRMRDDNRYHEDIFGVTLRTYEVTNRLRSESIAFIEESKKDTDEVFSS
neuronal NOS, sequence (P29475 whole entry, species assumed): as the sequence (P29475 whole entry) above

For `O=[N+]([O-])c1cccc2cn[nH]c12` [7-NI, 7-nitroindazole], the “intensity of 3-Ntyr immunofluorescence” value (SH-SY5Y cells) is listed as “significantly decreased the intensity”, the “intensity of Syp immunofluorescence” value (SH-SY5Y cells) is listed as “significantly decreased the intensity” and the half-life [1] is listed as no more than 2 h. For the same molecule, the “selectivity for neuronal NOS” value (neuronal NOS) was 10 fold, the “motor activity (distance travelled and velocity, open field)” value (SHANK3 mutant mice) was “no significant difference in the motor activity” and the NADPH diaphorase activity (nNOS) was “significantly inhibited”.
